Laboratory results from patent US20220396840A1, “IRON-SCORE AND IN VITRO METHOD FOR IDENTIFYING MANTLE CELL LYMPHOMA (MCL) SUBJECTS AND THERAPEUTIC USES AND METHODS” (priority 2019, published 2022).
pIC50: −log10 of the molar value. Like-named read-outs stand apart in the source and are kept apart here.

Columns and labels:
primary MCL cells = assay: Primary MCL cells of patients cultured with CD40L, flow cytometry; format: cell-based, human
Method: (§1) In a first experiment, primary MCL cells were treated with Ironomycin and incubated during 96H with CD40L. The toxicity on MCL cells (A) and non-MCL cells (B) was analyzed by flow cytometry and expressed in % of control. N=5, Median+/−IQR, t-test of pairs. * P<0.05, ** P<0.01, *** P<0.001, **** P<0.0001.
These first results were further completed by additional experiments: primary MCL cell were treated with Ironomycin (C) or AM-23 (D) and incubated during 96H with recombinant CD40L.
Results represent the median±IQR of each population cells of nine (C) and six patients (D), respectively. Statistical significance was tested using t-test of pairs: * P<0.05, ** P<0.01 *** P<0.001, **** P<0.0001 and NS: non-significant.
(§2) Cells are obtained from lymph nodes or blood of 9 patients with MCL.
(§3) In a first experiment, primary MCL cells were treated with Ironomycin and incubated during 96H with CD40L. The toxicity on MCL cells (FIG. 7 A) and non-MCL cells (FIG. 7 B) was analyzed by flow cytometry and expressed in % of control.
The toxicity on MCL cells was analyzed by flow cytometry and expressed in % of control.

JEKO-1 = assay: Cell viability assay (CellTiter-Glo, ATP quantification); format: cell-based; conditions: Homo sapiens
Method: (§4) The 6 MCL cell lines (GRANTA-519, JEKO-1, MINO, MAVER-1, JVM-2 and REC-1) were purchased from the DSMZ (Leibniz-Institut DSMZ—Deutsche Sammlung von Mikroorganismen und Zellkulturen GmbH, Germany). They were maintained according to the supplier's recommendations. Cultures were maintained at 37° C. in a humidified atmosphere with 5% CO2.
(§5) MCL cell lines were cultured for 4 days in 96-well flat-bottom microtiter plates in RPMI 1640 medium or DMEM medium, 10% or 20% FCS (control medium) in the presence of various compounds. The number of viable cells in culture was determined using the CellTiter-Glo Luminescent Cell Viability Assay from Promega, Madison, Wis., USA using a Centro LB 960 luminometer (Berthold Technologies, Bad Wildbad, Germany).
(§6) This test is based on quantitation of the intracellular ATP present, which signals the presence of metabolically active cells. Data are expressed as the mean percentage of six replicates, normalized to the untreated control.
(§7) We investigated the therapeutic interest of iron metabolism inhibitors AM5 (Ironomycin) and AM23. The panel of 6 MCL cell lines were incubated with increasing concentrations of Ironomycin (FIG. 2 A), AM23 (FIG. 2 B) or vehicle for 96H (A). Inhibitory concentration 50% (IC50) was calculated with concentration-response curve after treatment with Ironomycin. Cell viability was examined using quantification of ATP assay. Data are expressed as mean percentage+/−SEM of at least three independent experiments performed in sixplicate. Tables 6 and 7 presenting the inhibitory concentration 50% (IC50) of Ironomycin and AM23 for the 6 MCL cell-lines.

MAVER-1 = assay: as above; format: cell-based; conditions: Homo sapiens
Method: as §4, §5, §6, §7

JVM-2 = assay: as above; format: cell-based; conditions: Homo sapiens
Method: as §4, §5, §6, §7

MINO = assay: as above; format: cell-based; conditions: Homo sapiens
Method: as §4, §5, §6, §7

REC-1 = assay: as above; format: cell-based; conditions: Homo sapiens
Method: as §4, §5, §6, §7

GRANTA-519 = assay: as above; format: cell-based; conditions: Homo sapiens
Method: as §4, §5, §6, §7

Jeko-1 and JVM-2 cells = assay: Drug combination concentration matrix, cell viability by ATP quantification, Bliss synergy matrix; format: cell-based, human; conditions: 96 h
Method: Jeko-1 and JVM-2 cells were treated with increasing concentrations of ironomycin combined with ibrutinib (BTK inhibitor) for 96 h and cell viability was tested by ATP quantification to obtain the viability matrix. The synergy matrix was calculated as described in Material and Methods.
Jeko-1 and JVM-2 cells were treated with increasing concentrations of ironomycin combined with Venetoclax (BCL2 inhibitor) for 96 h and cell viability was tested by ATP quantification to obtain the viability matrix. The synergy matrix was calculated as described in Material and Methods.
Jeko-1 and JVM-2 cells were treated with increasing concentrations of ironomycin combined with doxorubicin for 96 h and cell viability was tested by ATP quantification to obtain the viability matrix. The synergy matrix was calculated as described in Material and Methods.
The interaction between the drugs tested in vitro was investigated with a concentration matrix test, in which increasing concentration of each single drug were assessed with all possible combinations of the other drugs. For each combination, the percentage of expected growing cells in the case of effect independence was calculated according to the Bliss equation (Combes et al., 2019): […]
where fuC is the expected fraction of cells unaffected by the drug combination in the case of effect independence, and fuA and fuB are the fractions of cells unaffected by treatment A and B, respectively. The difference between the fraction of living cells in the cytotoxicity test and the fuC value was considered as an estimation of the interaction effect, with positive values indicating synergism and negative values antagonism.
Synergy matrix was built with the R package “SynergyFinder”.

[1] = test system: Jeko-1 and JVM-2 cell lines; assay: Cell cycle analysis by flow cytometry (BrdU/DAPI); format: cell-based, human; conditions: IC50 Ironomycin for 24 hours
Method: Cells were incubated with vehicle or with IC50 Ironomycin for 24 hours.
The cell cycle progression was studied by flow cytometry using the Apoptosis, DNA Damage, and Cell Proliferation Kit (562253, Becton Dickinson). Briefly, cells were labeled with bromodeoxyuridine (BrdU), an analog of the DNA precursor thymidine that can be incorporated into newly synthesized DNA and detected with an antibody against BrdU to measure cell proliferation. After this labeling, the cells were fixed, permeabilized and treated with DNase to expose the BrdU epitopes. Following this treatment, cells were simultaneously stained with fluorochrome-labeled anti-BrdU, anti-cleaved Poly ADP-ribose polymerase 1 (PARP), anti-H2AX phosphorylated at serine 139. They were also stained with DAPI to determine DNA content. Finally, cells were resuspended in staining buffer and analyzed by flow cytometry (Fortessa, Becton Dickinson).
Cells were incubated with vehicle or with IC50 Ironomycin for 24 hours. […] (FIG. 4)

[2] = test system: Cyclin D1, phospho-Rb, CDK4 in Jeko-1 and JVM2 cells; assay: Western blot of cyclinD1, phospho-Rb, Rb and CDK4; format: cell-based, human; conditions: 100 nM Jeko-1, 500 nM JVM2, 24H
Method: Jeko-1 and JVM2 cells were treated with Ironomycin (100 nM and 500 nM, respectively) during 24H. Protein levels of cyclinD1, phospho-Rb, Rb and CDK4 were analyzed by western blot and normalized by the β-actin expression level. This Cyclin D1 downregulation is associated with a downregulation of Rb phosphorylation and CDK4 protein levels.
(§8) The total cell lysates were obtained with RIPA 1× lysis buffer (#9806, Cell Signaling®) according with the supplier recommendations.
(§9) Protein lysates migrate on 10% polyacrylamide gel (NP-0301, Novex, Life Technologies®), in MOPS 1× running buffer (NP0001, Novex, Life Technologies®) or MES 1× running buffer NP-0002, Novex, Life Technologies®) and proteins are transferred to nitrocellulose membrane (1B301001, I-Blot Transfert Starck, NuPAGE, Life Technologies®). The primary antibodies mouse-anti-phospho-Histone H2A.X (Ser139) clone JBW301 (1/1000, Merck Millipore), rabbit anti-cyclinD1 (#2926, 1/1000, Cell Signaling®), rabbit anti-phospho (S795)-Rb (#9301, 1/1000, Cell Signaling®), mouse anti-Rb (#9309, 1/1000, Cell Signaling®), mouse anti-CDK4 (#2906, 1/1000, Cell Signaling®) were incubated in TBS-Tween 20 0.1% (Tris-Buffered Saline, pH 7.4) with 5% non-fat milk or Bovine serum albumin (Sigma-Aldrich, A7906). Protein levels are objectified by labeling with an anti-β-actin mouse monoclonal antibody (Sigma, A5441, St Louis, Mo., USA 1/1000). Primary antibodies are visualized with secondary anti-rabbit antibodies (Sigma®, A9169) or anti-mouse antibodies (Jackson, 115-036-068) coupled to peroxidase allows the development by chemiluminescence by Western Lightning ECL (NEL121001EA, Perkin Elmer®). Quantification of protein levels was performed with Image J® software (National Institutes of Health, Bethesda, Md., USA).
Mantle cell lymphoma (MCL) is now recognized as an aggressive B-cell lymphoma with various growth patterns (mantle zone, nodular, or diffuse) and a broad range of cytologic features. […]

Phospho-H2A.X (S139) = assay: Western blot of Phospho-H2A.X (S139), DNA damage response; format: cell-based, human; conditions: 100 nM for Jeko-1 and 500 nM for JVM-2, 24H
Method: Cells were treated with Ironomycin (100 nM for Jeko-1 and 500 nM for JVM-2) during 24H. Protein levels of Phospho-H2A.X (S139) were analyzed by western blot and normalized by β-actin protein level.
as §8
as §9, with “Protein levels are objectified by labeling with an anti-β-actin mouse monoclonal antibody (Sigma, A5441, St Louis, Mo., USA 1/1000). Primary antibodies are visualized with secondary anti-rabbit antibodies (Sigma®, A9169) or anti-mouse antibodies (Jackson, 115-036-068) coupled to peroxidase allows the development by chemiluminescence by Western Lightning ECL (NEL121001EA, Perkin Elmer®).” left out
Protein levels of Phospho-H2A.X (S139) were analyzed by western blot and normalized by β-actin protein level (FIG. 5).

[3] = test system: hematopoietic progenitors
[4] = test system: non-MCL cells (normal cells from the microenvironment); format: cell-based, human
Method: as §1, §2, §3

[5] = test system: Jeko-1 and JVM-2 MCL cell lines; conditions: deferasirox 80 μM, Ironomycin 50 nM and 500 nM, 72H
Method: Jeko-1 and JVM2 cell line was pre-incubated with or without 80 μM of deferasirox or 50 nM and 500 nM of Ironomycin, respectively, for 4 hours followed by 72H incubation in presence or absence of FeCl3 (100 μM). Apoptosis was assessed using Annexin V-PE staining by flow cytometry.
AnnexinV-PE staining for apoptosis analysis was performed using the “PE Annexin V Apoptosis Detection Kit I” (559763, Becton Dickinson).
The inventors further investigated the effect of Iron supplementation on the cell death induced by these treatments. Iron chelator (Deferasirox) concentrations were chosen according the maximal plasmatic concentration achievable in the patient (Nisbet-Brown et al., 2003).

[6] = Homo sapiens, 96 h, read-out: reduction of the median number of viable primary MCL cells

**Q.** What does the source list for `CC[C@@H](C(=O)[C@@H](C)[C@@H](O)[C@H](C)[C@@H]1O[C@@H]([C@@H](CC)C(=O)O)CC[C@@H]1C)[C@H]1O[C@]2(C=C[C@@H](NC3CC3)[C@]3(CC[C@@](C)([C@H]4CC[C@](O)(CC)[C@H](C)O4)O3)O2)[C@H](C)C[C@@H]1C` [AM-23]?
**A.** cytotoxicity at 0.01 µM (primary MCL cells; [6]): 34%; cytotoxicity at 0.02 µM (primary MCL cells; [6]): 58%; cytotoxicity at 0.05 µM (primary MCL cells; [6]): 60%; cytotoxicity at 0.1 µM (primary MCL cells; [6]): 64%; pIC50 (JEKO-1; JeKo-1, 96 h): 8.10; pIC50 (MAVER-1; Maver1, 96 h): 7.76; pIC50 (JVM-2; JVM-2, 96 h): 7.24; pIC50 (MINO; 96 h): 7.37; pIC50 (REC-1; Rec1, 96 h): 8.17; pIC50 (GRANTA-519; Granta-519, 96 h): 6.07

**Q.** `C#CCN[C@@H]1C=C[C@]2(O[C@H]([C@@H](CC)C(=O)[C@@H](C)[C@@H](O)[C@H](C)[C@@H]3O[C@@H]([C@@H](CC)C(=O)O)CC[C@@H]3C)[C@@H](C)C[C@H]2C)O[C@@]12CC[C@@](C)([C@H]1CC[C@](O)(CC)[C@H](C)O1)O2` [Ironomycin] was tested. Which “interaction effect in combination with Doxorubicin” value (Jeko-1 and JVM-2 cells) did it give?
**A.** synergistic effect

**Q.** What about the “interaction effect in combination with Ibrutinib (BTK inhibitor)” value (Jeko-1 and JVM-2 cells) of the same compound?
**A.** synergistic effect

**Q.** And the “interaction effect in combination with Venetoclax (Bcl2 inhibitor)” value (Jeko-1 and JVM-2 cells)?
**A.** synergistic effect

**Q.** What about the cell cycle [1] of the same compound?
**A.** induces MCL cell cycle defect

**Q.** And the CDK4 protein levels [2]?
**A.** downregulation

**Q.** And the “Cyclin D1 protein level” value [2]?
**A.** significant downregulation

**Q.** And the RB phosphorylation [2]?
**A.** downregulation

**Q.** What about the “DNA damage response (Serine 139 phosphorylation of H2A.X)” value (Phospho-H2A.X (S139)) of the same compound?
**A.** induces DNA damage response

**Q.** What about the “toxicity on hematopoietic progenitors” value [3] of the same compound?
**A.** low toxicity

**Q.** What about the “median number of viable primary MCL cells (first experiment)” value (primary MCL cells; 20 nM, 50 nM and 100 nM, 96H with CD40L, N=5) of the same compound?
**A.** significantly reduced

**Q.** And the cytotoxicity at 0.02 µM (primary MCL cells; [6])?
**A.** 30%

**Q.** And the cytotoxicity at 0.05 µM (primary MCL cells; [6])?
**A.** 46%

**Q.** And the cytotoxicity at 0.1 µM (primary MCL cells; [6])?
**A.** 53%

**Q.** And the pIC50 (JEKO-1; JEKO-1, 96H incubation, cell viability by ATP, read-out: IC50)?
**A.** 7.89

**Q.** What about the pIC50 (MAVER-1; Maver1, MAVER-1, 96H incubation, cell viability by ATP, read-out: IC50) of the same compound?
**A.** 7.30

**Q.** And the pIC50 (JVM-2; JVM-2, 96H incubation, cell viability by ATP, read-out: IC50)?
**A.** 6.86

**Q.** And the pIC50 (MINO; 96H incubation, cell viability by ATP, read-out: IC50)?
**A.** 7.26

**Q.** What about the pIC50 (REC-1; Rec1, REC-1, 96H incubation, cell viability by ATP, read-out: IC50) of the same compound?
**A.** 7.27

**Q.** And the pIC50 (GRANTA-519; GRANTA-519, 96H incubation, cell viability by ATP, read-out: IC50)?
**A.** 6.10

**Q.** What about the “toxicity for non-tumor cells from the microenvironment” value [4] of the same compound?
**A.** without major toxicity

**Q.** And the “toxicity in MCL cells compared to normal cells from the microenvironment” value [4]?
**A.** higher toxicity in MCL cells compared to normal cells

**Q.** And the “apoptosis monitored by Annexin V staining” value [5]?
**A.** induces apoptosis
